The conditions of the data set: Crystal; DTA.

± gives the expanded uncertainty stated by the source.

As to `CCc1ccc(CCOc2ccc(CC3SC(=O)NC3=O)cc2)nc1.Cl` (stereo unspecified), the Normal melting temperature amounted to 198.00 ± 1.1 °C.

For the origin of these results see the NIST ThermoML archive (doi:10.1021/je101230a).
